biological target: T1, ligand binding domain of human RORγ (A262-S507) (Homo sapiens, UniProt P51449); test: General RORγ SPA binding assay (competition with [3H]25-hydroxycholesterol); conditions: RORγ SPA binding assay, inhibition of [3H]25-hydroxycholesterol binding; read-out: IC50
T1 construct: made in house; host or cells: E. coli
T1 sequence (P51449 262-507): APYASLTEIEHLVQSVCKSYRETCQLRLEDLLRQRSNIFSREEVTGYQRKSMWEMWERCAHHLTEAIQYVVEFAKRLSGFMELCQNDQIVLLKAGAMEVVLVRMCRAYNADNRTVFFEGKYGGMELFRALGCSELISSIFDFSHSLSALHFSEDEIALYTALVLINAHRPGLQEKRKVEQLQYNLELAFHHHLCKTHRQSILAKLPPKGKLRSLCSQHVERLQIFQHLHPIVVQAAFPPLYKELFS
Procedure, shortened: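 Step one: compound meets 50 nM nickel-purified, His-tagged protein from E. coli for 15 min at room temperature (PBS, 0.5% fatty acid free BSA). Step two: radioligand is added for another 15 min. Step three: SPA beads are added for 30 min before scintillation reading and IC50 fitting.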

Row | Compound | IC50 [nM]
1 | Cc1nc(C)c(C(=O)NCc2ccnc(C(F)(F)F)n2)c(C2CCN(C(=O)Nc3c(F)cccc3F)CC2)n1 [Compound A122, 4-(1-{[(2,6-difluorophenyl)amino]carbonyl}piperidin-4-yl)-2,6-dimethyl-N-{[2-(trifluoromethyl)pyrimidin-4-yl]methyl}pyrimidine-5-carboxamide] | 116
2 | CCn1c(C)nc(C2CCN(C(=O)Cc3c(F)cccc3F)CC2)c(C(=O)NCc2cccc(C(F)(F)F)n2)c1=O [Compound I8, 4-(1-(2-(2,6-Difluorophenyl)acetyl)piperidin-4-yl)-1-ethyl-2-methyl-6-oxo-N-((6-(trifluoromethyl)pyridin-2-yl)methyl)-1,6-dihydropyrimidine-5-carboxamide] | 2290
3 | Cc1cc(C)cc(CNC(=O)c2cnc(C)nc2C2CCN(C(=O)Cc3ccc(F)cc3)CC2)c1 [Compound A29, N-(3,5-dimethylbenzyl)-4-(1-(2-(4-fluorophenyl)acetyl)piperidin-4-yl)-2-methylpyrimidine-5-carboxamide] | 1090
4 | Cc1nc(C)c(-c2nc(Cc3ccc(F)cc3)no2)c(C2CCN(C(=O)Cc3c(F)cccc3F)CC2)n1 [Compound C3, 2-(2,6-difluorophenyl)-1-(4-(5-(3-(4-fluorobenzyl)-1,2,4-oxadiazol-5-yl)-2,6-dimethylpyrimidin-4-yl)piperidin-1-yl)ethanone] | 606
5 | Cc1nc(NCc2ccnc(C(F)(F)F)c2)c(C(=O)NCc2ccnc(C(F)(F)F)c2)c(C2CCN(C(=O)Cc3c(F)cccc3F)CC2)n1 [Compound I2, 4-{1-[(2,6-Difluorophenyl)acetyl]piperidin-4-yl}-2-methyl-N-{[2-(trifluoromethyl)pyridin-4-yl]methyl}-6-({[2-(trifluoromethyl)pyridin-4-yl]methyl}amino)pyrimidine-5-carboxamide] | 71
6 | COc1cccc(CC(=O)N2CCC(c3nc(C)ncc3C(=O)NCc3cc(C)cc(C)c3)CC2)c1 [Compound A39, N-(3,5-dimethylbenzyl)-4-(1-(2-(3-methoxyphenyl)acetyl)piperidin-4-yl)-2-methylpyrimidine-5-carboxamide] | 5450
7 | Cc1nc(C)c(-c2nnc(-c3ccnc(C(F)(F)F)n3)o2)c(C2CCN(C(=O)Oc3ccccc3Cl)CC2)n1 [Compound C45, 2-Chlorophenyl 4-(2,6-dimethyl-5-{5-[2-(trifluoromethyl)pyrimidin-4-yl]-1,3,4-oxadiazol-2-yl}pyrimidin-4-yl)piperidine-1-carboxylate] | 42.8
8 | Cc1nc(N)nc(C2CCN(C(=O)Oc3ccc(F)cc3)CC2)c1-c1nnc(-c2ccnc(C(F)(F)F)n2)o1 [Compound C53, 4-Fluorophenyl 4-(2-amino-6-methyl-5-{5-[2-(trifluoromethyl)pyrimidin-4-yl]-1,3,4-oxadiazol-2-yl}pyrimidin-4-yl)piperidine-1-carboxylate] | 37.3
9 | Cc1cc(C)cc(CNC(=O)c2cnc(C)nc2C2CCN(C(=O)Cc3c(F)cccc3C(F)(F)F)CC2)c1 [Compound A4, N-(3,5-dimethylbenzyl)-4-(1-(2-(2-fluoro-6-(trifluoromethyl)phenyl)acetyl)piperidin-4-yl)-2-methylpyrimidine-5-carboxamide] | 7.8
10 | Cc1ncc(C(O)(CNC(=O)CCO)COc2cccc(C(F)(F)F)n2)c(C2CCN(C(=O)Nc3c(F)cccc3F)CC2)n1 (centres unmarked) [Compound N42, N-(2,6-Difluorophenyl)-4-(5-{1-hydroxy-2-[(3-hydroxypropanoyl)amino]-1-({[6-(trifluoromethyl)pyridin-2-yl]oxy}methyl)ethyl}-2-methylpyrimidin-4-yl)piperidine-1-carboxamide] | 183
11 | Cc1nc(C)c(C(O)COc2ccnc(C(F)(F)F)n2)c(C2CCN(C(=O)Nc3c(F)cccc3F)CC2)n1 (centres unmarked) [Compound N5, N-(2,6-Difluorophenyl)-4-[5-(1-hydroxy-2-{[2-(trifluoromethyl)pyrimidin-4-yl]oxy}ethyl)-2,6-dimethylpyrimidin-4-yl]piperidine-1-carboxamide] | 8.4
